Bridge positions count the residues as written; N and C are the ends. Peptide text beside a SMILES is read from it.
Tests used:
Format in all cases: cell-based
hNaV1.7 = molecular target: T1, hNaV1.7 (Homo sapiens, UniProt Q15858); assay: Automated whole-cell patch-clamp (QPatch 16X), hNaV1.7; details: for IC50: HEK293 cells expressing hNaV1.7 + β1 subunit, QPatch 16X, holding −80 mV, step to 0 mV, peptide incubated 2 min, 0.1% BSA, mean, SEM and n (3-9)
T1 construct: host or cells: HEK293
Description: (§1) Human embryonic kidney 293 (HEK293) cells stably expressing recombinant hNaV1.2, hNaV1.3 and hNaV1.7 and the β1 auxiliary subunit (Scottish Biomedical Drug Discovery, Glasgow, UK) were cultured in Minimal Essential medium (MEM) (Sigma-Aldrich, MO, United States) supplemented with 10% v/v FBS-New Zealand origin (Assay Matrix), 2 mM L-glutamine and selection antibiotics as per manufacturer’s recommendation. The HEK293 cells heterologously expressing mNaV1.7 and F813G-mNaV1.7 were generously provided by Prof Irina Vetter and were cultured in Minimal Essential medium (MEM) (Sigma-Aldrich, MO, United States) supplemented with 10% v/v FBS-New Zealand origin (Assay Matrix), 2 mM L-glutamine and hygromycin 100 μg/mL.
(§2) NaV channel currents from HEK293 cells stably expressing NaV subtypes and the β1 auxiliary subunit were recorded using an automated whole-cell patch clamp system QPatch 16X (Sophion Bioscience A/S, Ballerup, Denmark). As per the manufacturer’s guidelines, the cells were cultured for 48 h to achieve ∼80% confluency, detached using Detachin (Genlantis) and resuspended to 5 × 10^6 cells/mL in serum free media [CHO-cell SFM (Life Technologies), 25 mM HEPES and 100 U/mL penicillin/streptomycin]. The extracellular solution comprised (in mM) 1 CaCl2, 1 MgCl2, 5 HEPES, 3 KCl, 140 NaCl and 20 TEA-Cl, with the pH adjusted to 7.3 with NaOH. The intracellular solution comprised (in mM) 140 CsF, 1 EGTA, 5 CsOH, 10 HEPES and 10 NaCl, with the pH adjusted to 7.3 with CsOH. The osmolarity of both solutions were adjusted to 320 mOsm with sucrose. Compounds were prepared in extracellular solution containing 0.1% bovine serum albumin (Sigma-Aldrich). To obtain the dose-response curves, cells were maintained at a holding potential −80 mV and Na^+ currents were elicited by […] voltage steps to 0 mV from a −120 mV conditioning pulse applied for […]. Increasing concentrations of the peptide were incubated with the cells at the holding potential for 2 min before the voltage protocol was applied.
(§3) The experimental data were analysed using QPatch Assay software v5.6.4 and GraphPad Prism 7.0 using a four-parameter Hill equation [Y = Bottom + (Top—Bottom)/(1 + 10^(Log IC50—X)* Hillslope)] to fit concentration response curves by non-linear regression analysis and Student’s t-test. Data are presented as means ± standard error of mean (SEM) with number of independent experiments stated and p < 0.05 is considered statistically significant. Statistically insignificant shift in the activity is denoted by “little” while small but statistically significant shift in the activity is denoted by “slight” throughout the manuscript.

hNaV1.2 = molecular target: T2, hNaV1.2 (Homo sapiens, UniProt Q99250); assay: Automated whole-cell patch-clamp (QPatch 16X), hNaV1.2; details: for IC50: HEK293 cells expressing hNaV1.2 + β1 subunit, QPatch 16X, holding −80 mV, step to 0 mV, peptide incubated 2 min, 0.1% BSA, mean, SEM and n (2-7)
T2 construct: host or cells: HEK293
T2 sequence (Q07699 19-218): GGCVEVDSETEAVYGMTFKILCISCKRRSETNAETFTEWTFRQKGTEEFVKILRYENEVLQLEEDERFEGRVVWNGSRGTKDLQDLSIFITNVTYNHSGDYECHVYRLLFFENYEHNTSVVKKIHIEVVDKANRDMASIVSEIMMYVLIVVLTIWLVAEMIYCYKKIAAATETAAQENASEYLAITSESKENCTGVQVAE
T2 sequence (Q99250 whole entry): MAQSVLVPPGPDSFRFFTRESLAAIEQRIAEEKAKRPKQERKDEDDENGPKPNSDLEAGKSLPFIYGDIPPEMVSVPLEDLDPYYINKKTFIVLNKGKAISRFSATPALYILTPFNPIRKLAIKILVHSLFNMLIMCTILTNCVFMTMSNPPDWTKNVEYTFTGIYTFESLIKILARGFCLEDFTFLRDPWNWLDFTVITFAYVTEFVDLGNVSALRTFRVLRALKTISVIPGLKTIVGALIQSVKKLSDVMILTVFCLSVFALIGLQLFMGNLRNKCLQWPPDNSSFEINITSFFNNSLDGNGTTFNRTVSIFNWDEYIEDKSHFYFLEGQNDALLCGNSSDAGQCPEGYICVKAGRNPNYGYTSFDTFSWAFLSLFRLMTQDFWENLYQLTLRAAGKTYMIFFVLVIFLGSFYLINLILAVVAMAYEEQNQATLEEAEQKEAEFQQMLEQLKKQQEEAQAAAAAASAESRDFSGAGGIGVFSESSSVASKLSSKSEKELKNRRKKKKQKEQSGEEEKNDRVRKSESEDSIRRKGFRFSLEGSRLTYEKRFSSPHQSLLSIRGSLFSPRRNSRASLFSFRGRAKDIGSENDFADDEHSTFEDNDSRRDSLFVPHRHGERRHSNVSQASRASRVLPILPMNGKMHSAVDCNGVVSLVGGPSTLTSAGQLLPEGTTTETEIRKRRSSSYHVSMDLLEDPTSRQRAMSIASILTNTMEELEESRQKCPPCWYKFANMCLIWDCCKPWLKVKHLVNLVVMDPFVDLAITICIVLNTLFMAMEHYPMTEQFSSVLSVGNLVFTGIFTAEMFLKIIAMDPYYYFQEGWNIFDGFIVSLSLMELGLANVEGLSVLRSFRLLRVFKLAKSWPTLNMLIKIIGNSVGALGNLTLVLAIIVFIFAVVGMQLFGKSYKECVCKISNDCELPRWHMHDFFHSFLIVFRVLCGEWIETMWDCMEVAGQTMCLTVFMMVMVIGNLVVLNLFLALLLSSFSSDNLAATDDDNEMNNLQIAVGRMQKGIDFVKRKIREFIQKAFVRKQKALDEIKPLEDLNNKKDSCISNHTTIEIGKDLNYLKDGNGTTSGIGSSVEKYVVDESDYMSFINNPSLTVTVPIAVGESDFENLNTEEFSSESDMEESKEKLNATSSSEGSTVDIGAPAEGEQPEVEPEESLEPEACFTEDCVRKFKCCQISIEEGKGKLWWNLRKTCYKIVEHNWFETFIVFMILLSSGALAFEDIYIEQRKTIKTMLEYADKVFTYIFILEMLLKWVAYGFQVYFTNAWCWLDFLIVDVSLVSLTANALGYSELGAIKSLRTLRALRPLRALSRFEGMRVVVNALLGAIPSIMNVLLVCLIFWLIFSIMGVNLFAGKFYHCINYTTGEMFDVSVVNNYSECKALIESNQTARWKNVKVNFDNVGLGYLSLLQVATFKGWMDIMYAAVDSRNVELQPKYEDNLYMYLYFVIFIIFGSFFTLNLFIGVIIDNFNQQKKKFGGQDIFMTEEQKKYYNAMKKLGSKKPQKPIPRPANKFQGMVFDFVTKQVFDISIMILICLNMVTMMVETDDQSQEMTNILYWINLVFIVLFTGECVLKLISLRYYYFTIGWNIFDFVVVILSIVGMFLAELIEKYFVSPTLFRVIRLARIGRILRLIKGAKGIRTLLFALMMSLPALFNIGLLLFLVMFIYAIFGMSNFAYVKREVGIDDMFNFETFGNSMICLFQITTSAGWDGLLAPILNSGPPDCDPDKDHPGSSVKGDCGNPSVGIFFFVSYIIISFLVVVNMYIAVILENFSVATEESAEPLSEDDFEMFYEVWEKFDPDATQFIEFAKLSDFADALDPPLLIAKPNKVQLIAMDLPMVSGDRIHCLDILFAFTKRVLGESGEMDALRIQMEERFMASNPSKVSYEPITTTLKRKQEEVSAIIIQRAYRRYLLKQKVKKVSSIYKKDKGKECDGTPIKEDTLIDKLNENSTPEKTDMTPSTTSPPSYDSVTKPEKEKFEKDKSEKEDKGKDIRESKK
Description: as §1, §2, §3

hNaV1.3 = molecular target: T3, hNaV1.3 (Homo sapiens, UniProt Q9NY46); assay: Automated whole-cell patch-clamp (QPatch 16X), hNaV1.3; details: HEK293 cells expressing hNaV1.3 + β1 subunit; QPatch 16X; holding −80 mV, step to 0 mV; peptide incubated 2 min; 0.1% BSA; mean, SEM and n (3-12)
T3 construct: host or cells: HEK293
T3 sequence (Q9NY46 whole entry): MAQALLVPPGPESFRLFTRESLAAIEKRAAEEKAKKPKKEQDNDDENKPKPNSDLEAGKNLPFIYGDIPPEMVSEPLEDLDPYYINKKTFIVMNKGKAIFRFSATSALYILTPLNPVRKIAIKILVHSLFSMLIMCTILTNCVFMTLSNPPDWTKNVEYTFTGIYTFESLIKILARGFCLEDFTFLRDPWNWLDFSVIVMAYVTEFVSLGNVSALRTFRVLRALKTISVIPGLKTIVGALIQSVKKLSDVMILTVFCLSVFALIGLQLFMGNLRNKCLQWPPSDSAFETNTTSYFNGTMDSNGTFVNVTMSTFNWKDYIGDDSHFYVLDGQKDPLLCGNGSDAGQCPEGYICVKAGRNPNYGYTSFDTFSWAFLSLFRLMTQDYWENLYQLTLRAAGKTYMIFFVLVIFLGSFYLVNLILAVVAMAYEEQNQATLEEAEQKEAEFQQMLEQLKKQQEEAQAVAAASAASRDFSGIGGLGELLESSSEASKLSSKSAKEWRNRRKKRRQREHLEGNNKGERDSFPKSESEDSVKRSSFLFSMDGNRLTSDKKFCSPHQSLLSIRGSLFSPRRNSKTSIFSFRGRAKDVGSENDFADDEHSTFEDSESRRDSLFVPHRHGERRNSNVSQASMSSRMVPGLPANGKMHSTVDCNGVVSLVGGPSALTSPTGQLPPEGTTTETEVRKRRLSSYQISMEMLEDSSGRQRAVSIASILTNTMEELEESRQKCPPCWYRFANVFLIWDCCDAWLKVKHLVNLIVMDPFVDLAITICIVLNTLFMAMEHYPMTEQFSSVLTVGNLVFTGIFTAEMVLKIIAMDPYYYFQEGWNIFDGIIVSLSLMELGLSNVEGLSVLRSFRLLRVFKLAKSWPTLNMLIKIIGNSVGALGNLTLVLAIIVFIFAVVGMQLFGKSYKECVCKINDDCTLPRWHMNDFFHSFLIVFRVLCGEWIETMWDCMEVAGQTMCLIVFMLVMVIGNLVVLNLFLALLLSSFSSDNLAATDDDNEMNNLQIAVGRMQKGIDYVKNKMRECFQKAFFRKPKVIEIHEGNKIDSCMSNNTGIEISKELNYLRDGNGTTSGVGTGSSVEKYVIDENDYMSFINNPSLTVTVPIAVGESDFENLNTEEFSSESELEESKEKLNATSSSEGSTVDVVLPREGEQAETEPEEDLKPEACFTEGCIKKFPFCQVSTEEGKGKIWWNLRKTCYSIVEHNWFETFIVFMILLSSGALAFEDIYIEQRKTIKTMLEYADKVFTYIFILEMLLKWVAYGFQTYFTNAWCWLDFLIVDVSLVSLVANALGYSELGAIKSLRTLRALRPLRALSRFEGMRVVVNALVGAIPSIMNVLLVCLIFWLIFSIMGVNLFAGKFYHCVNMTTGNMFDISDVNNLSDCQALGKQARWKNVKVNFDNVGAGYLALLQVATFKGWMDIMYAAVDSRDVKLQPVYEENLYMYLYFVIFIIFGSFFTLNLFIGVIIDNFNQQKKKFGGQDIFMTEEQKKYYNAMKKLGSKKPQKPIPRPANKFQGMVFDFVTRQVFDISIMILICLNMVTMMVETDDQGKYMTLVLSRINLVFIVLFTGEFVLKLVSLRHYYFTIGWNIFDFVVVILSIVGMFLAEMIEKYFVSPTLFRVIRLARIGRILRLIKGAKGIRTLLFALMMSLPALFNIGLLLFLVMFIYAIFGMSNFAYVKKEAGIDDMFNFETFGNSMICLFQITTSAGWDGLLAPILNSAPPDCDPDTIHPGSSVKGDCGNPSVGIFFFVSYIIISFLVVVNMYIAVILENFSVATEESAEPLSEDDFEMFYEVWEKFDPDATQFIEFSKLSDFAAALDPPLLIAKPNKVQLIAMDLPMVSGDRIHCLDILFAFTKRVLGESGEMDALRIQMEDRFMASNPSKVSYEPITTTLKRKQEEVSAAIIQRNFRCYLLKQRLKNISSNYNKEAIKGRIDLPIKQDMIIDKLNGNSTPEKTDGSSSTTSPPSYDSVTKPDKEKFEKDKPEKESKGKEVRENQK
T3 sequence (Q07699 19-218, further chain): as the sequence (Q07699 19-218) above
Description: as §1, §2, §3

CC(C)C[C@H](NC(=O)[C@H](Cc1ccc(O)cc1)NC(=O)[C@H](Cc1ccc(O)cc1)NC(=O)[C@H](CCCNC(=N)N)NC(=O)[C@@H]1CSSC[C@@H]2NC(=O)[C@H](CCCCN)NC(=O)[C@H](CC(N)=O)NC(=O)[C@H](CC(N)=O)NC(=O)[C@H](CC(N)=O)NC(=O)[C@@H]3CCCN3C(=O)[C@H](CC(=O)O)NC(=O)[C@@H]3CSSC[C@H](NC(=O)[C@H](C(C)C)NC(=O)[C@H](Cc4ccc(O)cc4)NC(=O)CNC(=O)[C@H](CCC(=O)O)NC(=O)[C@H](CSSC[C@H](NC(=O)[C@H](CC(=O)O)NC(=O)CN)C(=O)N[C@@H](CC(C)C)C(=O)NCC(=O)N[C@@H](Cc4c[nH]c5ccccc45)C(=O)N[C@@H](Cc4ccccc4)C(=O)N[C@@H](CO)C(=O)NCC(=O)N3)NC2=O)C(=O)N[C@@H](Cc2c[nH]cn2)C(=O)N[C@@H](Cc2c[nH]c3ccccc23)C(=O)N[C@@H](CCCCN)C(=O)N[C@@H](Cc2ccc(O)cc2)C(=O)N2CCC[C@H]2C(=O)N[C@@H](Cc2c[nH]c3ccccc23)C(=O)N1)C(=O)O [D32Y]
IC50 (hNaV1.7): 110 nM
IC50 (hNaV1.2): 75 nM
hNaV1.2-selectivity against hNaV1.3 (hNaV1.2; ratio of potencies hNaV1.3 / hNaV1.2): ~6 fold
IC50 (hNaV1.3): 417 nM

CC(C)C[C@H](NC(=O)[C@H](CC(=O)O)NC(=O)[C@H](Cc1ccc(O)cc1)NC(=O)[C@H](CCCNC(=N)N)NC(=O)[C@@H]1CSSC[C@@H]2NC(=O)[C@H](CCCCN)NC(=O)[C@H](CC(N)=O)NC(=O)[C@H](CC(N)=O)NC(=O)[C@H](CC(N)=O)NC(=O)[C@@H]3CCCN3C(=O)[C@H](CC(=O)O)NC(=O)[C@@H]3CSSC[C@H](NC(=O)[C@H](C(C)C)NC(=O)[C@H](Cc4ccc(O)cc4)NC(=O)CNC(=O)[C@H](Cc4ccccc4)NC(=O)[C@H](CSSC[C@H](NC(=O)[C@H](CC(=O)O)NC(=O)CN)C(=O)N[C@@H](CC(C)C)C(=O)NCC(=O)N[C@@H](Cc4c[nH]c5ccccc45)C(=O)N[C@@H](Cc4ccccc4)C(=O)N[C@@H](CO)C(=O)NCC(=O)N3)NC2=O)C(=O)N[C@@H](Cc2c[nH]cn2)C(=O)N[C@@H](Cc2c[nH]c3ccccc23)C(=O)N[C@@H](CCCCN)C(=O)N[C@@H](Cc2ccc(O)cc2)C(=O)N2CCC[C@H]2C(=O)N[C@@H](Cc2c[nH]c3ccccc23)C(=O)N1)C(=O)O [E18F]
IC50 (hNaV1.7): 171 nM
IC50 (hNaV1.2): 232 nM
IC50 (hNaV1.3): 395 nM

CC(C)C[C@H](NC(=O)[C@H](CC(=O)O)NC(=O)[C@H](Cc1ccc(O)cc1)NC(=O)[C@H](CCCNC(=N)N)NC(=O)[C@@H]1CSSC[C@@H]2NC(=O)[C@H](CCCCN)NC(=O)[C@H](CC(N)=O)NC(=O)[C@H](CC(N)=O)NC(=O)[C@H](CC(N)=O)NC(=O)[C@@H]3CCCN3C(=O)[C@H](CC(=O)O)NC(=O)[C@@H]3CSSC[C@H](NC(=O)[C@H](C(C)C)NC(=O)[C@H](Cc4ccc(O)cc4)NC(=O)CNC(=O)CNC(=O)[C@H](CSSC[C@H](NC(=O)[C@H](CC(=O)O)NC(=O)CN)C(=O)N[C@@H](CC(C)C)C(=O)NCC(=O)N[C@@H](Cc4c[nH]c5ccccc45)C(=O)N[C@@H](Cc4ccccc4)C(=O)N[C@@H](CO)C(=O)NCC(=O)N3)NC2=O)C(=O)N[C@@H](Cc2c[nH]cn2)C(=O)N[C@@H](Cc2c[nH]c3ccccc23)C(=O)N[C@@H](CCCCN)C(=O)N[C@@H](Cc2ccc(O)cc2)C(=O)N2CCC[C@H]2C(=O)N[C@@H](Cc2c[nH]c3ccccc23)C(=O)N1)C(=O)O [E18G]
IC50 (hNaV1.7): 276 nM
IC50 (hNaV1.2): 119 nM
IC50 (hNaV1.3): 406 nM

CC(C)C[C@H](NC(=O)[C@H](CC(=O)O)NC(=O)[C@H](Cc1ccc(O)cc1)NC(=O)[C@H](CCCNC(=N)N)NC(=O)[C@@H]1CSSC[C@@H]2NC(=O)[C@H](CCCCN)NC(=O)[C@H](CC(N)=O)NC(=O)[C@H](CC(N)=O)NC(=O)[C@H](CC(N)=O)NC(=O)[C@@H]3CCCN3C(=O)[C@H](CC(=O)O)NC(=O)[C@@H]3CSSC[C@H](NC(=O)[C@H](C(C)C)NC(=O)[C@H](Cc4ccc(O)cc4)NC(=O)CNC(=O)[C@H](CCCCN)NC(=O)[C@H](CSSC[C@H](NC(=O)[C@H](CC(=O)O)NC(=O)CN)C(=O)N[C@@H](CC(C)C)C(=O)NCC(=O)N[C@@H](Cc4c[nH]c5ccccc45)C(=O)N[C@@H](Cc4ccccc4)C(=O)N[C@@H](CCCNC(=N)N)C(=O)NCC(=O)N3)NC2=O)C(=O)N[C@@H](Cc2c[nH]cn2)C(=O)N[C@@H](Cc2c[nH]c3ccccc23)C(=O)N[C@@H](CCCCN)C(=O)N[C@@H](Cc2ccc(O)cc2)C(=O)N2CCC[C@H]2C(=O)N[C@@H](Cc2c[nH]c3ccccc23)C(=O)N1)C(=O)O [E18K/S7R] (H-GDCLGWFRGCDPNNNKCCKGYVCHWKYPWCRYDL-OH; disulfide 3-18, 10-23, 17-30)
IC50 (hNaV1.7): 40 nM
IC50 (hNaV1.2): 40 nM
IC50 (hNaV1.3): 59 nM

CC(C)C[C@H](NC(=O)[C@H](CC(=O)O)NC(=O)[C@H](Cc1ccc(O)cc1)NC(=O)[C@H](CCCNC(=N)N)NC(=O)[C@@H]1CSSC[C@@H]2NC(=O)[C@H](CCCCN)NC(=O)[C@H](CC(N)=O)NC(=O)[C@H](CC(N)=O)NC(=O)[C@H](CC(N)=O)NC(=O)[C@@H]3CCCN3C(=O)[C@H](CC(=O)O)NC(=O)[C@@H]3CSSC[C@H](NC(=O)[C@H](C(C)C)NC(=O)[C@H](Cc4ccc(O)cc4)NC(=O)CNC(=O)[C@H](CCCCN)NC(=O)[C@H](CSSC[C@H](NC(=O)[C@H](CC(=O)O)NC(=O)CN)C(=O)N[C@@H](CC(C)C)C(=O)NCC(=O)N[C@@H](Cc4c[nH]c5ccccc45)C(=O)N[C@@H](Cc4ccccc4)C(=O)N[C@@H](CO)C(=O)NCC(=O)N3)NC2=O)C(=O)N[C@@H](Cc2c[nH]cn2)C(=O)N[C@@H](Cc2c[nH]c3ccccc23)C(=O)N[C@@H](CCCCN)C(=O)N[C@@H](Cc2ccc(O)cc2)C(=O)N2CCC[C@H]2C(=O)N[C@@H](Cc2c[nH]c3ccccc23)C(=O)N1)C(=O)O [E18K]
IC50 (hNaV1.7): 107 nM
IC50 (hNaV1.2): 72 nM
IC50 (hNaV1.3): 313 nM

CC(C)C[C@H](NC(=O)[C@H](CC(=O)O)NC(=O)[C@H](Cc1ccc(O)cc1)NC(=O)[C@H](CCCNC(=N)N)NC(=O)[C@@H]1CSSC[C@@H]2NC(=O)[C@H](CCCCN)NC(=O)[C@H](CC(N)=O)NC(=O)[C@H](CC(N)=O)NC(=O)[C@H](CC(N)=O)NC(=O)[C@@H]3CCCN3C(=O)[C@H](CC(=O)O)NC(=O)[C@@H]3CSSC[C@H](NC(=O)[C@H](C(C)C)NC(=O)[C@H](Cc4ccc(O)cc4)NC(=O)CNC(=O)[C@H](Cc4ccc(O)cc4)NC(=O)[C@H](CSSC[C@H](NC(=O)[C@H](CC(=O)O)NC(=O)CN)C(=O)N[C@@H](CC(C)C)C(=O)NCC(=O)N[C@@H](Cc4c[nH]c5ccccc45)C(=O)N[C@@H](Cc4ccccc4)C(=O)N[C@@H](CO)C(=O)NCC(=O)N3)NC2=O)C(=O)N[C@@H](Cc2c[nH]cn2)C(=O)N[C@@H](Cc2c[nH]c3ccccc23)C(=O)N[C@@H](CCCCN)C(=O)N[C@@H](Cc2ccc(O)cc2)C(=O)N2CCC[C@H]2C(=O)N[C@@H](Cc2c[nH]c3ccccc23)C(=O)N1)C(=O)O [E18Y]
IC50 (hNaV1.7): 179 nM
IC50 (hNaV1.2): 203 nM
IC50 (hNaV1.3): 300 nM

CC(C)C[C@H](NC(=O)[C@H](CC(=O)O)NC(=O)[C@H](Cc1ccc(O)cc1)NC(=O)[C@H](CCCNC(=N)N)NC(=O)[C@@H]1CSSC[C@@H]2NC(=O)[C@H](CCCCN)NC(=O)[C@H](CC(N)=O)NC(=O)[C@H](CC(N)=O)NC(=O)[C@H](CC(N)=O)NC(=O)[C@@H]3CCCN3C(=O)[C@H](CC(=O)O)NC(=O)[C@@H]3CSSC[C@H](NC(=O)[C@H](C(C)C)NC(=O)[C@H](Cc4ccc(O)cc4)NC(=O)CNC(=O)[C@H](CCC(=O)O)NC(=O)[C@H](CSSC[C@H](NC(=O)[C@H](CC(=O)O)NC(=O)CN)C(=O)N[C@@H](CC(C)C)C(=O)NCC(=O)N[C@@H](Cc4c[nH]c5ccccc45)C(=O)N[C@@H](C)C(=O)N[C@@H](CO)C(=O)NCC(=O)N3)NC2=O)C(=O)N[C@@H](Cc2c[nH]cn2)C(=O)N[C@@H](Cc2c[nH]c3ccccc23)C(=O)N[C@@H](CCCCN)C(=O)N[C@@H](Cc2ccc(O)cc2)C(=O)N2CCC[C@H]2C(=O)N[C@@H](Cc2c[nH]c3ccccc23)C(=O)N1)C(=O)O [F6A] (H-GDCLGWASGCDPNNNKCCEGYVCHWKYPWCRYDL-OH; disulfide 3-18, 10-23, 17-30 (inferred); N-terminus and C-terminus assumed)
IC50 (hNaV1.7): > 1000 nM
Loss (reduction) in potency vs rSsp1a at hNaV1.7 (hNaV1.7; relative to wild type rSsp1a): ≥ 10 fold
IC50 (hNaV1.2): > 1000 nM
Loss (reduction) in potency vs rSsp1a at hNaV1.2 (hNaV1.2; relative to wild type rSsp1a): ≥ 10 fold
IC50 (hNaV1.3): > 1000 nM
